Measured values as given in patent publication US20060263802A1 (priority 2003, published 2006).

Assays:
Format in all cases: binding
[1] = system: human monoclonal antibody CRJA
[2] = system: human monoclonal antibody CRJA; remark: listed apart in the source
[3] = system: human monoclonal antibody CRJB
[4] = system: human monoclonal antibody CR57
[5] = system: human monoclonal antibody CRJB; remark: listed apart in the source
[6] = system: human monoclonal antibody CR57; remark: listed apart in the source

Sequence | Binding of CRJA (10 μg/ml) to looped/cyclic peptide (PEPSCAN-ELISA signal) [1] | Binding of CRJA to linear peptide (PEPSCAN-ELISA signal) [2] | Binding of CRJB to linear peptide (PEPSCAN-ELISA signal) [3] | Binding of CR57 (10 μg/ml) to looped/cyclic peptide (PEPSCAN-ELISA signal) [4] | binding of antibody CR57 to looped/cyclic peptide (PEPSCAN OD) [4] | Binding of CRJB (10 μg/ml) to looped/cyclic peptide (PEPSCAN-ELISA signal) [5] | Binding of CR57 to linear peptide (PEPSCAN-ELISA signal) [6] | Binding of CRJA (10 μg/ml) to looped/cyclic peptide (PEPSCAN-ELISA) [1] | Binding of CR57 (10 μg/ml) to looped/cyclic peptide (PEPSCAN-ELISA) [4] | Binding of CRJB (10 μg/ml) to looped/cyclic peptide (PEPSCAN-ELISA) [5] | Binding of CRJA to looped/cyclic peptide (PEPSCAN-ELISA signal) [1] | Binding of human monoclonal antibody CRJA to linear peptide (PEPSCAN-ELISA signal) [2] | Binding of human monoclonal antibody CRJB to linear peptide (PEPSCAN-ELISA signal) [3] | Binding of CR57 to looped/cyclic peptide (PEPSCAN-ELISA signal) [4] | Binding of CRJB to looped/cyclic peptide (PEPSCAN-ELISA signal) [5] | Binding of human monoclonal antibody CR57 to linear peptide (PEPSCAN-ELISA signal) [6]
GYVTTTFKRKHFRPT | 101 | 87 | 123 | 200 | clearly bound | 138 | 70 |  |  |  |  |  |  |  |  | 
KLGPWSPIDIHHLSC | 85 | 72 | 105 | 97 |  | 65 | 72 |  |  |  |  |  |  |  |  | 
LLESSVIPLVHPLAD |  | 92 | 117 |  |  |  | 72 | 91 | 93 | 76 |  |  |  |  |  | 
DRSLHSRVFPSGKCS | 99 | 187 | 142 | 91 |  | 100 | 98 |  |  |  |  |  |  |  |  | 
LQQHMELLESSVIPL |  | 91 | 134 |  |  |  | 106 | 108 | 136 | 93 |  |  |  |  |  | 
TWVAMQTSNETKWCP |  | 100 | 118 |  |  |  | 78 | 84 | 87 | 89 |  |  |  |  |  | 
GLRLMDGTWVAMQTS |  | 108 | 138 |  |  |  | 104 | 100 | 120 | 99 |  |  |  |  |  | 
TKESLVIISPSVADL | 88 | 102 | 112 | 99 |  | 80 | 86 |  |  |  |  |  |  |  |  | 
TPDACRAAYNWKMAG | 111 | 132 | 132 | 125 |  | 90 | 92 |  |  |  |  |  |  |  |  | 
YEESLHNPYPDYRWL | 84 | 87 | 106 | 98 |  | 50 | 58 |  |  |  |  |  |  |  |  | 
LESSVIPLVHPLADP |  | 110 | 128 |  |  |  | 90 | 114 | 120 | 128 |  |  |  |  |  | 
LRVGGRCHPHVNGVF |  | 104 | 143 |  |  |  | 104 | 96 | 99 | 105 |  |  |  |  |  | 
SSLLQQHMELLESSV |  | 106 | 128 |  |  |  | 90 | 90 | 98 | 76 |  |  |  |  |  | 
VVTEAENYTNFVGYV | 58 | 90 | 106 | 80 |  | 62 | 87 |  |  |  |  |  |  |  |  | 
DLDPYDRSLHSRVFP | 92 | 107 | 152 | 90 |  | 68 | 111 |  |  |  |  |  |  |  |  | 
SNETKWCPPDQLVNL |  | 94 | 129 |  |  |  | 99 | 102 | 129 | 93 |  |  |  |  |  | 
SGKCSGVAVSSTYCS | 85 | 65 | 121 | 77 |  | 57 | 64 |  |  |  |  |  |  |  |  | 
AEDFVEVHLPDVHNQ |  |  |  |  |  |  |  |  |  |  | 101 | 114 | 138 | 117 | 90 | 123
LGPDGNVLIPEMQSS |  | 99 | 134 |  |  |  | 100 | 104 | 150 | 94 |  |  |  |  |  | 
LGPWSPIDIHHLSCP | 72 | 84 | 112 | 88 |  | 83 | 69 |  |  |  |  |  |  |  |  | 
KLVPGFGKAYTIFNK |  | 73 | 114 |  |  |  | 47 | 71 | 54 | 71 |  |  |  |  |  | 
RSLHSRVFPSGKCSG | 123 | 125 | 141 | 102 |  | 93 | 87 |  |  |  |  |  |  |  |  | 
TVFKDGDEAEDFVEV |  |  |  |  |  |  |  |  |  |  | 110 | 92 | 124 | 111 | 90 | 107
PTPDACRAAYNWKMA | 136 | 129 | 125 | 114 |  | 112 | 99 |  |  |  |  |  |  |  |  | 
SLHSRVFPSGKCSGV | 97 | 96 | 111 | 115 |  | 86 | 69 |  |  |  |  |  |  |  |  | 
FRPTPDACRAAYNWK | 125 | 104 | 112 | 90 |  | 88 | 43 |  |  |  |  |  |  |  |  | 
QHMELLESSVIPLVH |  | 87 | 146 |  |  |  | 98 | 111 | 132 | 97 |  |  |  |  |  | 
DALESIMTTKSVSFR |  | 105 | 120 |  |  |  | 104 | 110 | 127 | 127 |  |  |  |  |  | 
KWCPPDQLVNLHDFR |  | 97 | 113 |  |  |  | 89 | 102 | 118 | 100 |  |  |  |  |  | 
